Assay results published in patent publication US20250098679A1, “HERBICIDAL PYRIDONE DERIVATIVES” (SYNGENTA CROP PROTECTION AG, priority 2021, published 2025).

Tests used:
Type in all cases: in vivo
Conditions in all cases: evaluated after 13 days
Setaria faberi (SETFA) [1] = assay: Pre-emergence Test, Setaria faberi (SETFA)
[2] = system: Echinochloa crus-galli (ECHCG); assay: Pre-emergence Test, Echinochloa crus-galli (ECHCG)
Zea mays (ZEAMX) [3] = assay: Pre-emergence Test, Zea mays (ZEAMX)
[4] = system: Ipomoea hederacea (IPOHE); assay: Pre-emergence Test, Ipomoea hederacea (IPOHE)
[5] = system: Amaranthus palmeri (AMAPA); assay: Pre-emergence Test, Amaranthus palmeri (AMAPA)
[6] = system: Amaranthus retoflexus (AMARE); assay: Pre-emergence Test, Amaranthus retoflexus (AMARE)
Setaria faberi (SETFA) [7] = assay: Post-emergence Test, Setaria faberi (SETFA); design: key to percentage damage caused to the plant, SETFA (five-point scale): 5=81-100%, 4=61-80%, 3=41-60%, 2=21-40%, 1=0-20% damage
Method in brief: (§1)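 Application was a spray of acetone/water (50:50) with 0.5% Tween 20 onto pots of test species sown in standard soil. Unless otherwise stated, the rate was 1000 g/ha. After 13 days under glasshouse conditions (24/16 °C, 65% humidity), injury was scored from 1 (0-20%) to 5 (81-100%).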

[8] = system: Echinochloa crus-galli (ECHCG); assay: Post-emergence Test, Echinochloa crus-galli (ECHCG); design: key to percentage damage caused to the plant, ECHCG (five-point scale): 5=81-100%, 4=61-80%, 3=41-60%, 2=21-40%, 1=0-20% damage
Method in brief: as §1

Zea mays (ZEAMX) [9] = assay: Post-emergence Test, Zea mays (ZEAMX); design: key to percentage damage caused to the plant, ZEAMX (five-point scale): 5=81-100%, 4=61-80%, 3=41-60%, 2=21-40%, 1=0-20% damage
Method in brief: as §1

[10] = system: Ipomoea hederacea (IPOHE); assay: Post-emergence Test, Ipomoea hederacea (IPOHE); design: key to percentage damage caused to the plant, IPOHE (five-point scale): 5=81-100%, 4=61-80%, 3=41-60%, 2=21-40%, 1=0-20% damage
Method in brief: as §1

[11] = system: Amaranthus palmeri (AMAPA); assay: Post-emergence Test, Amaranthus palmeri (AMAPA); design: key: 5=81-100%, 4=61-80%, 3=41-60%, 2=21-40%, 1=0-20% damage
Method in brief: as §1

[12] = system: Amaranthus retoflexus (AMARE); assay: Post-emergence Test, Amaranthus retoflexus (AMARE); design: key to percentage damage caused to the plant, AMARE (five-point scale): 5=81-100%, 4=61-80%, 3=41-60%, 2=21-40%, 1=0-20% damage
Method in brief: as §1

Row | Compound | Pre-emergence Test SETFA, percentage damage caused to the plant (five-point scale) (Setaria faberi (SETFA) [1]; 1000 g/ha) | Pre-emergence Test ECHCG, percentage damage caused to the plant (five-point scale) ([2]; 1000 g/ha) | Pre-emergence Test ZEAMX, percentage damage caused to the plant (five-point scale) (Zea mays (ZEAMX) [3]; 1000 g/ha) | Pre-emergence Test IPOHE, percentage damage caused to the plant (five-point scale) ([4]; 1000 g/ha) | Pre-emergence Test AMAPA, percentage damage caused to the plant (five-point scale) ([5]; 1000 g/ha) | Pre-emergence Test AMARE, percentage damage caused to the plant (five-point scale) ([6]; 1000 g/ha) | percentage damage caused to the plant, SETFA (five-point scale) (Setaria faberi (SETFA) [7]; 1000 g/ha) | percentage damage caused to the plant, ECHCG (five-point scale) ([8]; 1000 g/ha) | percentage damage caused to the plant, ZEAMX (five-point scale) (Zea mays (ZEAMX) [9]; 1000 g/ha) | percentage damage caused to the plant, IPOHE (five-point scale) ([10]; 1000 g/ha) | percentage damage caused to the plant, AMAPA (five-point scale) ([11]; 1000 g/ha) | percentage damage caused to the plant, AMARE (five-point scale) ([12]; 1000 g/ha) | Pre-emergence Test SETFA, percentage damage caused to the plant (five-point scale) (Setaria faberi (SETFA) [1]; 250 g/Ha (*)) | Pre-emergence Test ECHCG, percentage damage caused to the plant (five-point scale) ([2]; 250 g/Ha (*)) | percentage damage caused to the plant, SETFA (five-point scale) (Setaria faberi (SETFA) [7]; 250 g/Ha) | percentage damage caused to the plant, ECHCG (five-point scale) ([8]; 250 g/Ha) | percentage damage caused to the plant, ZEAMX (five-point scale) (Zea mays (ZEAMX) [9]; 250 g/Ha) | percentage damage caused to the plant, IPOHE (five-point scale) ([10]; 250 g/Ha) | percentage damage caused to the plant, AMAPA (five-point scale) ([11]; 250 g/Ha) | percentage damage caused to the plant, AMARE (five-point scale) ([12]; 250 g/Ha) | further results
1 | CCn1c(Cn2ccc(C(F)(F)F)n2)c(C)c(=O)c(C(=O)O)c1-c1ccc(Cl)c(Cl)c1 [Compound 20, 2-(3,4-dichlorophenyl)-1-ethyl-5-methyl-4-oxo-6-[[3-(trifluoromethyl)pyrazol-1-yl]methyl]pyridine-3-carboxylic acid] | 2 (2=21-40%) | 4 (4=61-80%) | 1 (1=0-20%) | 0 | 0 | 0 | 4 (4=61-80%) | 3 (3=41-60%) | 1 (1=0-20%) | 0 | 0 | 1 (1=0-20%) | – | – | – | – | – | – | – | – | –
2 | CCn1c(Cn2ccc(C(F)(F)F)n2)c(-c2ccc(Cl)cc2)c(=O)c(C(=O)O)c1-c1ccc(Cl)c(Cl)c1 [Compound 21, 5-(4-chlorophenyl)-2-(3,4-dichlorophenyl)-1-ethyl-4-oxo-6-[[3-(trifluoromethyl)pyrazol-1-yl]methyl]pyridine-3-carboxylic acid] | – | – | – | – | – | – | 0 | 0 | 1 (1=0-20%) | 3 (3=41-60%) | 2 (2=21-40%) | 1 (1=0-20%) | 0 | 0 | – | – | – | – | – | – | Pre-emergence Test ZEAMX, percentage damage caused to the plant (five-point scale) (Zea mays (ZEAMX) [3]; 250 g/Ha (*)): 0; Pre-emergence Test IPOHE, percentage damage caused to the plant (five-point scale) ([4]; 250 g/Ha (*)): 1 (1=0-20%); Pre-emergence Test AMAPA, percentage damage caused to the plant (five-point scale) ([5]; 250 g/Ha (*)): 0; Pre-emergence Test AMARE, percentage damage caused to the plant (five-point scale) ([6]; 250 g/Ha (*)): 0
3 | CCn1c(Cn2ccc(C(F)(F)F)n2)cc(=O)c(C(=O)OC)c1-c1ccc(Cl)cc1 [Compound 22, methyl 2-(4-chlorophenyl)-1-ethyl-4-oxo-6-[[3-(trifluoromethyl)pyrazol-1-yl]methyl]pyridine-3-carboxylate] | 4 (4=61-80%) | 3 (3=41-60%) | 0 | 0 | 0 | 0 | 3 (3=41-60%) | 3 (3=41-60%) | 1 (1=0-20%) | 2 (2=21-40%) | 1 (1=0-20%) | 1 (1=0-20%) | 4 (4=61-80%) | 1 (1=0-20%) | 3 (3=41-60%) | 0 | 0 | 1 (1=0-20%) | 1 (1=0-20%) | 1 (1=0-20%) | Pre-emergence Test ZEAMX, percentage damage caused to the plant (five-point scale) (Zea mays (ZEAMX) [3]; 250 g/Ha (*)): 0; Pre-emergence Test IPOHE, percentage damage caused to the plant (five-point scale) ([4]; 250 g/Ha (*)): 0; Pre-emergence Test AMAPA, percentage damage caused to the plant (five-point scale) ([5]; 250 g/Ha (*)): 0; Pre-emergence Test AMARE, percentage damage caused to the plant (five-point scale) ([6]; 250 g/Ha (*)): 0
4 | CCn1c(Cn2ccc(C(F)(F)F)n2)cc(=O)c(C(=O)O)c1-c1cccc(Cl)c1 [Compound 25, 2-(3-chlorophenyl)-1-ethyl-4-oxo-6-[[3-(trifluoromethyl)pyrazol-1-yl]methyl]pyridine-3-carboxylic acid] | 5 (5=81-100%) | 5 (5=81-100%) | 1 (1=0-20%) | 1 (1=0-20%) | 2 (2=21-40%) | 2 (2=21-40%) | 4 (4=61-80%) | 4 (4=61-80%) | 3 (3=41-60%) | 4 (4=61-80%) | 2 (2=21-40%) | 2 (2=21-40%) | – | – | 4 (4=61-80%) | 3 (3=41-60%) | 0 | 4 (4=61-80%) | 2 (2=21-40%) | 2 (2=21-40%) | –
5 | CCOC(=O)c1c(-c2cccc(Cl)c2)n(CC)c(Cn2ccc(C(F)(F)F)n2)cc1=O [Compound 26, ethyl 2-(3-chlorophenyl)-1-ethyl-4-oxo-6-[[3-(trifluoromethyl)pyrazol-1-yl]methyl]pyridine-3-carboxylate] | 3 (3=41-60%) | 2 (2=21-40%) | 1 (1=0-20%) | 0 | 0 | 0 | 1 (1=0-20%) | 1 (1=0-20%) | 2 (2=21-40%) | 3 (3=41-60%) | 2 (2=21-40%) | 1 (1=0-20%) | – | – | 1 (1=0-20%) | 1 (1=0-20%) | 1 (1=0-20%) | 1 (1=0-20%) | 1 (1=0-20%) | 1 (1=0-20%) | –
